In ChEMBL document CHEMBL4138237, “Activation of anti-oxidant Nrf2 signaling by enone analogues of curcumin” (Eur J Med Chem, 2018):
Active and inactive are the calls of the source.

Experiments:
[1] = biological target: Luciferin 4-monooxygenase (Photinus pyralis, UniProt P08659); test: Effect on firefly luciferase activity expressed in human HepG2 cells at low concentration after 5 hrs by luminescence assay; assay type: ADME, cell-based; conditions: hepg2, 5 h
[2] = biological target: T1, Nuclear factor erythroid 2-related factor 2 (Homo sapiens) (UniProt Q16236); test: Activation of Nrf2 (unknown origin) expressed in human HepG2 cells at 15 uM after 5 hrs by ARE-driven luciferase reporter gene assay relative to control; assay type: cell-based
T1 sequence (whole entry): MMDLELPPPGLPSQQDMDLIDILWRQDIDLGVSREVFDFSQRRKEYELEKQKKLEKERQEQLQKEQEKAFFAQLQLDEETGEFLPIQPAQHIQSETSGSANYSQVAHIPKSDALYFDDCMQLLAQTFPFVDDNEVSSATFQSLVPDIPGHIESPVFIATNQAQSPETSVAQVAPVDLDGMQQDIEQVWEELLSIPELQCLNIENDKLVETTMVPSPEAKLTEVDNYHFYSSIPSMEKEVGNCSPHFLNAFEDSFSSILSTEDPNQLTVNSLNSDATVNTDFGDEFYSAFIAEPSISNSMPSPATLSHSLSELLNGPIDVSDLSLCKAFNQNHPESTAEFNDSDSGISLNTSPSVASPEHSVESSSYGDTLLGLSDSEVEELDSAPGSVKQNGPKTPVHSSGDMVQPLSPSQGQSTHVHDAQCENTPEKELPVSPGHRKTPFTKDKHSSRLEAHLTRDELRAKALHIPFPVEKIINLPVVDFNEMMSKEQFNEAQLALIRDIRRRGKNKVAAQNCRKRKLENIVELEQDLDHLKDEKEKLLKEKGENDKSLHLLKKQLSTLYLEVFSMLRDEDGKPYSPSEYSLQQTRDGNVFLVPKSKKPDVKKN

Chain of Luciferin 4-monooxygenase (P08659 whole entry): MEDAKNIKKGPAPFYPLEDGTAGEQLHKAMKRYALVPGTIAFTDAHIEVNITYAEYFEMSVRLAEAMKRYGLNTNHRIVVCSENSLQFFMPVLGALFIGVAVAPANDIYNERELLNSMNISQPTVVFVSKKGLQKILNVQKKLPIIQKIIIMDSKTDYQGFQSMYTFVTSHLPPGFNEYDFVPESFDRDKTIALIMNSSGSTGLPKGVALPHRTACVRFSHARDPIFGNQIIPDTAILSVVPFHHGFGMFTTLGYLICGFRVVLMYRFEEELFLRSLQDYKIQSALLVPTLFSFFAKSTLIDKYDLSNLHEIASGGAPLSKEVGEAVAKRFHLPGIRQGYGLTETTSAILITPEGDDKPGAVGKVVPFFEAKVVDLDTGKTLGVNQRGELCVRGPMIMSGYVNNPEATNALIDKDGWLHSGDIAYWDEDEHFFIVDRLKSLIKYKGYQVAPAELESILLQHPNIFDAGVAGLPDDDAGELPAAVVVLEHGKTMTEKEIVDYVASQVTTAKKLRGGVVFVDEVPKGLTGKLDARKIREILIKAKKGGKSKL

SMILES | Activity [2] | fold change (FC) [2] | Activity [1]
COc1cccc(/C=C2\CCC/C(=C\c3cccc(OC)c3)C2=O)c1 | Active |  | Non-Toxic
CC(C)c1ccc(/C=C2\CN(C)C/C(=C\c3ccc(C(C)C)cc3)C2=O)cc1 | Active |  | Non-Toxic
COc1ccccc1/C=C1\CCC/C(=C\c2ccccc2OC)C1=O | inactive |  | Non-Toxic
O=C(/C=C/c1c(Cl)cccc1Cl)/C=C/c1c(Cl)cccc1Cl | inactive |  | Non-Toxic

The next lines start with results.

Activity [2] | fold change (FC) [2] | SMILES | Activity [1]
Active |  | O=C1/C(=C/c2c(Cl)cccc2Cl)CCC/C1=C\c1c(Cl)cccc1Cl | Non-Toxic
inactive |  | CN(C)c1ccc(/C=C/C(=O)CC(=O)/C=C/c2ccc(N(C)C)cc2)cc1 | Non-Toxic
 | 18.5 | O=C(/C=C/c1ccccc1O)/C=C/c1ccccc1O | Non-Toxic
Active |  | COc1ccc(/C=C/C(=O)CC(=O)/C=C/c2ccc(OC)cc2OC)c(OC)c1 | Non-Toxic
